According to PMC6160999, “Pharmacokinetics, Tissue Distribution and Excretion of a Novel Diuretic (PU-48) in Rats” (Pharmaceutics, 2018):
Read-outs that look alike come from different tables or passages of the source.

Legend:
plasma protein [1] = assay: Plasma protein binding by equilibrium dialysis, rat plasma; format: in vitro ADME; details: for Concentration in Buffer (post-dialysis) / Concentration in Plasma (post-dialysis) / Protein-Binding Ratio: rat plasma, n=5; for Concentration in Buffer (post-dialysis) / Concentration in Plasma (post-dialysis): 37 °C 24 h
Description: (§1) The concentration of PU-48 prototype in biological sample (feces and plasma protein binding analysis) was determined using a validated high-performance liquid chromatographic (HPLC) method our preliminary experiment (See Supplementary Materials HPLC Analysis and Method Validation). Briefly, the quantitative analysis of PU-48 was performed using a HPLC consistent of model 510 pump with a model 2487 ultraviolet detector, a model Rheodyne 7725 injector, and a column oven. The analytical conditions were as follows—The detection wavelength—293 nm; analytical column—a reversed-phase Acclaim C18 (4.6 mm × 250 mm, 5.0 µm, Dionex, Sunnyvale, CA, USA); column temperature—25 °C; mobile phase—acetonitrile—distilled water at a ratio of 60:40 (v/v); flow rate—1 mL/min. In this study, the methods for the feces samples were evaluated for specificity, linearity, precision, accuracy, and recovery (See Supplementary Materials Tables S4–S6).
(§2) The binding ratio of PU-48 to plasma protein was determined by equilibrium dialysis. A volume of 1 mL of plasma with PU-48 (0.25, 1 and 4 µg/mL) was added to a semi-permeable membrane bag (plasma chamber), the bag was place into the other clean tube with 9 mL PBS (buffer chamber). The equilibrium dialysis was performed at 37 °C for 24 h. At the end of dialysis, 500 μL each of post-dialysis samples from the plasma and the buffer chambers were collected and analyzed by HPLC method. The plasma protein binding of PU-48 was calculated from the concentration of PU-48 in PBS (free concentration) and in plasma (free + bound) according to equation: Bound (%) = (Concplasma chamber − Concbuffer chamber)/Concplasma chamber × 100%.

plasma protein [2] = assay: Plasma protein binding by equilibrium dialysis, human plasma; format: in vitro ADME; details: for Concentration in Buffer (post-dialysis) / Concentration in Plasma (post-dialysis) / Protein-Binding Ratio: human plasma, n=5; for Concentration in Buffer (post-dialysis) / Concentration in Plasma (post-dialysis): 37 °C 24 h
Description: as §1, §2

[3] = Stability of PU-48 in rat plasma QC samples (HPLC); format: in vitro ADME; details: for Stability: Measured Concentration: n=3
Description: HPLC Analysis and Method Validation
The concentration of PU -48 prototype in biological sample (feces and plasma protein binding analysis) was determined using a validated high -performance liquid chromatographic (HPLC) method in our preliminary experiment. Briefly, the analysis was performed using a HPLC consistent of model 510 pump with a model 2487 ultraviolet detector, a model Rheodyne 7725 injector, and a column oven. The analytical conditions were as follows: the detection wavelength: 293 nm; analytical column: a reversed-phase Acclaim C18 (4.6 mm × 250 mm, 5.0 µm, Dionex); column temperature: 25 C; mobile phase: acetonitrile: distilled water at a ratio of 60: 40 ( v/v); flow rate: 1 mL/min. In this study, the methods for the feces samples, were evaluated for specificity, linearity, precision, accuracy and […]
The intra- and inter-day precision and accuracy were determined by analyzing five replicates of QC samples (low, medium and high concentrations of 0.005, 0.08 and 1.6 µg/mL) at each QC level on the same day and on five consecutive days. The precision was expressed as the relative standard deviation (RSD) between the measured values and the targeted values. The pass c riterion was set at <15%. The accuracy was expressed as relative error (RE) between the measured values and the targeted values, which was set at < ± 15% (for the low concentration, the acceptance criterion was <20%). The stability of PU -48 in rat plasma w as determined by analyzing QC samples stored in different conditions, including room temperature and light irradiation for 24 h, post -preparation (the extracted samples were stored at 4°C for 96 h), three cycles of freeze and thaw (freezing at -20°C for 24 h and thawing at room temperature) and long-term stored at −20°C for 3 months. All of the QC samples for stability assessment were analyzed in triplicate.

[4] = cited from earlier work
[5] = tested on: IMCD urea transporter UT-As; parameters: method as in PMID 25298345, PMID 12133842, PMID 12965892, PMID 23597791, PMID 24210002; details: rodents, compared to the other thienoquinolin lead compounds; cited from earlier work
[6] = parameters: method as in PMID 24055006, PMID 23728001, PMID 9124305, PMID 2671740; details: cited from earlier work
[7] = extracted rat plasma samples, post−preparative (at 4 °C for 96 h), actual 0.005 µg/mL
[8] = extracted rat plasma samples, post−preparative (at 4 °C for 96 h), actual 0.08 µg/mL
[9] = extracted rat plasma samples, post−preparative (at 4 °C for 96 h), actual 1.6 µg/mL
[10] = rat plasma, freeze−thawing three cycles (at −20 °C), actual 0.005 µg/mL
[11] = rat plasma, freeze−thawing three cycles (at −20 °C), actual 0.08 µg/mL
[12] = rat plasma, freeze−thawing three cycles (at −20 °C), actual 1.6 µg/mL
[13] = rat plasma, freezing storage (at −20 °C for 3 months), actual 0.005 µg/mL
[14] = rat plasma, freezing storage (at −20 °C for 3 months), actual 0.08 µg/mL
[15] = rat plasma, light and room temperature for 24 h, actual 0.005 µg/mL
[16] = rat plasma, light and room temperature for 24 h, actual 0.08 µg/mL
[17] = rat plasma, light and room temperature for 24 h, actual 1.6 µg/mL

In the case of `COC(=O)c1sc2nc3ccc(OC)cc3cc2c1N` [PU-48, Methyl 3-amino-6-methoxythieno [2,3-b] quinoline-2-carboxylate], the “Concentration in Buffer (post-dialysis)” value (plasma protein [1]; added 0.25 µg/mL) is reported as 12 ± 3 ng/mL, the “Concentration in Plasma (post-dialysis)” value (plasma protein [1]; added 0.25 µg/mL) is reported as 127 ± 7 ng/mL and the “Protein-Binding Ratio” value (plasma protein [1]; added 0.25 µg/mL) is reported as 90.70 ± 2.18%. For the same compound, the “Concentration in Buffer (post-dialysis)” value (plasma protein [1]; added 1 µg/mL) was 47 ± 2 ng/mL, the “Concentration in Plasma (post-dialysis)” value (plasma protein [1]; added 1 µg/mL) was 524 ± 32 ng/mL and the “Protein-Binding Ratio” value (plasma protein [1]; added 1 µg/mL) was 91.06 ± 0.78%. For the same compound, the “Concentration in Buffer (post-dialysis)” value (plasma protein [1]; added 4 µg/mL) was 194 ± 19 ng/mL, the “Concentration in Plasma (post-dialysis)” value (plasma protein [1]; added 4 µg/mL) was 2128 ± 166 ng/mL and the “Protein-Binding Ratio” value (plasma protein [1]; added 4 µg/mL) was 90.83 ± 1.17%. For the same compound, the fraction unbound at 24 h (plasma protein [1]; rat, plasma, rats, overall statement) was < 0.1, the “Concentration in Buffer (post-dialysis)” value (plasma protein [2]; added 0.25 µg/mL) was 12 ± 3 ng/mL and the “Concentration in Plasma (post-dialysis)” value (plasma protein [2]; added 0.25 µg/mL) was 146 ± 8 ng/mL. The “Protein-Binding Ratio” value (plasma protein [2]; added 0.25 µg/mL) was 91.60 ± 1.57%, the “Concentration in Buffer (post-dialysis)” value (plasma protein [2]; added 1 µg/mL) was 52 ± 3 ng/mL and the “Concentration in Plasma (post-dialysis)” value (plasma protein [2]; added 1 µg/mL) was 611 ± 27 ng/mL. For the same compound, the “Protein-Binding Ratio” value (plasma protein [2]; added 1 µg/mL) was 91.48 ± 0.64%, the “Concentration in Buffer (post-dialysis)” value (plasma protein [2]; added 4 µg/mL) was 231 ± 29 ng/mL and the “Concentration in Plasma (post-dialysis)” value (plasma protein [2]; added 4 µg/mL) was 2290 ± 93 ng/mL. For the same compound, the “Protein-Binding Ratio” value (plasma protein [2]; added 4 µg/mL) was 89.90 ± 1.50%, the fraction unbound at 24 h (plasma protein [2]; plasma, human, overall statement) was < 0.1 and the “Stability: Accuracy (RE)” value [3, 7] was −8.43%. For the same compound, the “Stability: Measured Concentration” value [3, 7] was 0.0046 ± 0.0006 µg/mL, the “Stability: Accuracy (RE)” value [3, 8] was −10.23% and the “Stability: Measured Concentration” value [3, 8] was 0.0718 ± 0.0019 µg/mL. For the same compound, the “Stability: Accuracy (RE)” value [3, 9] was −3.08%, the “Stability: Measured Concentration” value [3, 9] was 1.5507 ± 0.0904 µg/mL and the “Stability: Accuracy (RE)” value [3, 10] was −7.33%. For the same compound, the “Stability: Measured Concentration” value [3, 10] was 0.0046 ± 0.0004 µg/mL, the “Stability: Accuracy (RE)” value [3, 11] was −3.43% and the “Stability: Measured Concentration” value [3, 11] was 0.0773 ± 0.0055 µg/mL. The “Stability: Accuracy (RE)” value [3, 12] was −8.49%, the “Stability: Measured Concentration” value [3, 12] was 1.4641 ± 0.0840 µg/mL and the “Stability: Accuracy (RE)” value [3, 13] was −9.37%. For the same compound, the “Stability: Measured Concentration” value [3, 13] was 0.0045 ± 0.0002 µg/mL, the “Stability: Accuracy (RE)” value [3, 14] was −6.48% and the “Stability: Measured Concentration” value [3, 14] was 0.0748 ± 0.0058 µg/mL. The “Stability: Accuracy (RE)” value ([3]; rat plasma, freezing storage (at −20 °C for 3 months), actual 1.6 µg/mL) was −10.15%, the “Stability: Accuracy (RE)” value [3, 15] was −9.278% and the “Stability: Measured Concentration” value [3, 15] was 0.0045 ± 0.0003 µg/mL. For the same compound, the “Stability: Accuracy (RE)” value [3, 16] was 9.07%, the “Stability: Measured Concentration” value [3, 16] was 0.0873 ± 0.0011 µg/mL and the “Stability: Accuracy (RE)” value [3, 17] was −10.63%. The “Stability: Measured Concentration” value [3, 17] was 1.4299 ± 0.0296 µg/mL, the Diuretic activity ([4]; rodents, compared to the other thienoquinolin lead compounds) was “more potent diuretic activity” and the Diuretic activity ([4]; wild-type and UT-gene knockout mice) was “potent diuretic activity”. The “Selective inhibition towards IMCD urea transporter UT-As” value [5] was “higher selective inhibition” and the “Serum levels of sodium, chloride, or potassium” value [6] was “did not change”.
